Laboratory results: the kinase profiling compilation of Christmann-Franck et al. (2016)

How the values were obtained:
Experiment in all cases: radiometric filter-binding kinase assay, Kinase HotSpot
Conditions in all cases: compound 0.5 µM; ATP 10 µM
[1] = target: PDGFRA (human) (UniProt P16234)
[2] = target: GRK7 (human) (UniProt Q8WTQ7)
[3] = target: MAPK13 (human) (UniProt O15264)
[4] = target: RET (human) (UniProt P07949)
[5] = target: TGFBR2 (human) (UniProt P37173)
[6] = target: FYN (human) (UniProt P06241)
[7] = target: RAF1 (human) (UniProt P04049)
[8] = target: PRKD2 (human) (UniProt Q9BZL6)
[9] = target: MAPKAPK3 (human) (UniProt Q16644)
[10] = target: CDK6 CCND3 (human) (UniProt P30281+Q00534)
[11] = target: ALK (human) (UniProt Q9UM73)
[12] = target: MAPK11 (human) (UniProt Q15759)
[13] = target: WNK3 (human) (UniProt Q9BYP7)
[14] = target: CDK1 CCNB1 (human) (UniProt P06493+P14635)
[15] = target: KIT (human) (UniProt P10721)
[16] = target: FRK (human) (UniProt P42685)
[17] = target: TBK1 (human) (UniProt Q9UHD2)
[18] = target: SRC (human) (UniProt P12931)
[19] = target: CHEK1 (human) (UniProt O14757)
[20] = target: AXL (human) (UniProt P30530)
[21] = target: EPHB4 (human) (UniProt P54760)
[22] = target: PAK1 (human) (UniProt Q13153)
[23] = target: GRK5 (human) (UniProt P34947)
[24] = target: GRK4 (human) (UniProt P32298)
[25] = target: PRKD1 (human) (UniProt Q15139)
[26] = target: ERBB4 (human) (UniProt Q15303)
[27] = target: PLK3 (human) (UniProt Q9H4B4)
[28] = target: RPS6KA1 KD1 KD2 (human) (UniProt Q15418)
[29] = target: CSNK2A1 (human) (UniProt P68400)
[30] = target: MAP4K5 (human) (UniProt Q9Y4K4)
[31] = target: PRKACA (human) (UniProt P17612)
[32] = target: MAPK1 (human) (UniProt P28482)
[33] = target: CAMK2B (human) (UniProt Q13554)
[34] = target: CDK5 CDK5R1 p25 (human) (UniProt Q00535+Q15078)
[35] = target: CSNK1A1 (human) (UniProt P48729)
[36] = target: FLT3 (human) (UniProt P36888)
[37] = target: STK10 (human) (UniProt O94804)
[38] = target: CDK9 CCNT1 (human) (UniProt P50750+O60563)
[39] = target: RPS6KA2 KD1 KD2 (human) (UniProt Q15349)
[40] = target: WEE1 (human) (UniProt P30291)
[41] = target: FLT1 (human) (UniProt P17948)

Sequence of ERBB4 (human) (Q15303 whole entry, looked up): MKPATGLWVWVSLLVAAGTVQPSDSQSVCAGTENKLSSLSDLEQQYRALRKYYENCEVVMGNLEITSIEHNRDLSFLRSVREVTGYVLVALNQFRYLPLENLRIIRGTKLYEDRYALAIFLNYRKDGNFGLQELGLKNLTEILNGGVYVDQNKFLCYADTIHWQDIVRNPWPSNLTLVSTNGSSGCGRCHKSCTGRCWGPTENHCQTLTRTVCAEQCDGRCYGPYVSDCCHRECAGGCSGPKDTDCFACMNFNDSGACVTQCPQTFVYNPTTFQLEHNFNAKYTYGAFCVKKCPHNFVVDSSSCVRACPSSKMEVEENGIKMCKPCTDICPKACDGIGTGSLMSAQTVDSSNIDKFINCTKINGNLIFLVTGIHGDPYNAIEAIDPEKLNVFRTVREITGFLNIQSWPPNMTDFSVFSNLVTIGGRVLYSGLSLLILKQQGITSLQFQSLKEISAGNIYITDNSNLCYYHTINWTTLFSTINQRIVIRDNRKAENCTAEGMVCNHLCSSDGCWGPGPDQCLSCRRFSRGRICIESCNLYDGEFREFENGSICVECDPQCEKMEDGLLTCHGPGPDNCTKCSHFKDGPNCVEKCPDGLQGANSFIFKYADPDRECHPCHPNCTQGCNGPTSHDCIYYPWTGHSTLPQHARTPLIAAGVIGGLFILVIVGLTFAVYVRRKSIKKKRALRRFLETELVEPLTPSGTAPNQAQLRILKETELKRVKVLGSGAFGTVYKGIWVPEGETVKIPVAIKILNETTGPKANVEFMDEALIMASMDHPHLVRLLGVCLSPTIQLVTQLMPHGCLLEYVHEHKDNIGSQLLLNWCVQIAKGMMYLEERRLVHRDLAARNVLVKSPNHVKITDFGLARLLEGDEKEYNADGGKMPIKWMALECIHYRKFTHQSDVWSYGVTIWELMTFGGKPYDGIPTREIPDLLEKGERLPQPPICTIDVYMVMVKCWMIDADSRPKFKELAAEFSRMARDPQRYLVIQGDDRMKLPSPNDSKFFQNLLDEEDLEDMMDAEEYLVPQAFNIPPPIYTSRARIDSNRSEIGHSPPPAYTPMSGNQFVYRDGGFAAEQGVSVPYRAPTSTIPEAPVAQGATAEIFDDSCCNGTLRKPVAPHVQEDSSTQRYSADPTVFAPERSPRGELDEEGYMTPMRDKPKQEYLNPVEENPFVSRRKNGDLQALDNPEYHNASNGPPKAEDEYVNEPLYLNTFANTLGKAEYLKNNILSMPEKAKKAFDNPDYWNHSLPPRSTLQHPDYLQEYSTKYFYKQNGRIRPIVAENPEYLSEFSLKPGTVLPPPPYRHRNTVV
Sequence of PDGFRA (human) (P16234 whole entry, looked up): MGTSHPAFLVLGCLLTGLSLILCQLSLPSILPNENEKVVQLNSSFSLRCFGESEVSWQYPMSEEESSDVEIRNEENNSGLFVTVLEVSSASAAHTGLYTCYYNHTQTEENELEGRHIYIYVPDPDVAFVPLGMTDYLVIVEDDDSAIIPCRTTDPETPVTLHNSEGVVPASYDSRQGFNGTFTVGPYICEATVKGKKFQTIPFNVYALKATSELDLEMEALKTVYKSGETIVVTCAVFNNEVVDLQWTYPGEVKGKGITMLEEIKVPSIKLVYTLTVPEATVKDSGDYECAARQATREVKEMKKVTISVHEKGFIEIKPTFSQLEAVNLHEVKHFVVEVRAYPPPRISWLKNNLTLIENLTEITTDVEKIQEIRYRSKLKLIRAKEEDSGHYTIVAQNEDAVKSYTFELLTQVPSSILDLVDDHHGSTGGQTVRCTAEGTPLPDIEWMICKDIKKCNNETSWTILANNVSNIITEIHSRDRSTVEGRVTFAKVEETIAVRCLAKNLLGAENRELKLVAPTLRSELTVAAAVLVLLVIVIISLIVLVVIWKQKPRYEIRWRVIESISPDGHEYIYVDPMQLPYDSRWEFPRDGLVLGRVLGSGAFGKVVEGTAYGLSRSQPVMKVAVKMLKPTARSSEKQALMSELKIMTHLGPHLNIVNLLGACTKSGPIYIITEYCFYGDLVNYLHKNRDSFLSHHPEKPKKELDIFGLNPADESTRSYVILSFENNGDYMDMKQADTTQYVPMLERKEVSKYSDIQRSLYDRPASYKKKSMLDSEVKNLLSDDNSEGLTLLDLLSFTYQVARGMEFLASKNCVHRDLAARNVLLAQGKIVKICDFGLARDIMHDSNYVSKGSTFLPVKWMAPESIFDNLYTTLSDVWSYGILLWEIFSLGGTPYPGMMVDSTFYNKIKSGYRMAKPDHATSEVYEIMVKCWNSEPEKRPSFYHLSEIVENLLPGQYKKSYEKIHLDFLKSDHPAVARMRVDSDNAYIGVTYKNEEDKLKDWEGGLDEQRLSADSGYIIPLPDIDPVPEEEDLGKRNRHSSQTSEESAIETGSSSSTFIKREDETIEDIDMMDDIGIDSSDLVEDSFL
Sequence of RAF1 (human) (P04049 whole entry, looked up): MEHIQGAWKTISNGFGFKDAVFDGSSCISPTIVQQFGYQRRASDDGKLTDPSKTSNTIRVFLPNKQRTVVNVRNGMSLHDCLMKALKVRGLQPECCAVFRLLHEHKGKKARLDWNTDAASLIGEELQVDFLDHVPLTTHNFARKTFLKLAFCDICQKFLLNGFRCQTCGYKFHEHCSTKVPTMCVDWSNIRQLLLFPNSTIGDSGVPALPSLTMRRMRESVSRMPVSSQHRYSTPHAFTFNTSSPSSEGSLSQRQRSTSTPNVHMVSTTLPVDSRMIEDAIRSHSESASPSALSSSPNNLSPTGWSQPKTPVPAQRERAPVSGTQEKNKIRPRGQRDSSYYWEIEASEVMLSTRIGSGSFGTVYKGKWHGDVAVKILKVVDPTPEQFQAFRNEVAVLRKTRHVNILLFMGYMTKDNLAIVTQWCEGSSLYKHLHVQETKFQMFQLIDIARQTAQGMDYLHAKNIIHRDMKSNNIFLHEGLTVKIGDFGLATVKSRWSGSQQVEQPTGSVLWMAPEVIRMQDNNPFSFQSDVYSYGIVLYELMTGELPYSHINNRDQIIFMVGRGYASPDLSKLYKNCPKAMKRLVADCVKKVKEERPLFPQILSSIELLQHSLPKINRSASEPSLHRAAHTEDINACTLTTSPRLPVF
Sequence of TGFBR2 (human) (P37173 whole entry, looked up): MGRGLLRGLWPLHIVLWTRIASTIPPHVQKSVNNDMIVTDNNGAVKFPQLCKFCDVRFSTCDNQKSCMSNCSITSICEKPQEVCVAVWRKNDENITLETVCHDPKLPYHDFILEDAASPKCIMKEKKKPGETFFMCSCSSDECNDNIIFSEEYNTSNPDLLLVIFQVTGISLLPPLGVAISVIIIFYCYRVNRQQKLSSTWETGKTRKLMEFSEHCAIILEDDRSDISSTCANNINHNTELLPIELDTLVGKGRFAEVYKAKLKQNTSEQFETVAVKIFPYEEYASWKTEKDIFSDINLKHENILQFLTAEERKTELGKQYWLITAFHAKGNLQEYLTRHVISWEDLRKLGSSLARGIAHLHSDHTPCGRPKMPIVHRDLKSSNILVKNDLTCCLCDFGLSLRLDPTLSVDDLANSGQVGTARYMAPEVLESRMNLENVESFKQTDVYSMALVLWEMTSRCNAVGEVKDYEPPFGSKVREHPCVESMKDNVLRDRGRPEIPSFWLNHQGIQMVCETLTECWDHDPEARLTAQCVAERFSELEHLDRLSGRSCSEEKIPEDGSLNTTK
Sequence of TBK1 (human) (Q9UHD2 whole entry, looked up): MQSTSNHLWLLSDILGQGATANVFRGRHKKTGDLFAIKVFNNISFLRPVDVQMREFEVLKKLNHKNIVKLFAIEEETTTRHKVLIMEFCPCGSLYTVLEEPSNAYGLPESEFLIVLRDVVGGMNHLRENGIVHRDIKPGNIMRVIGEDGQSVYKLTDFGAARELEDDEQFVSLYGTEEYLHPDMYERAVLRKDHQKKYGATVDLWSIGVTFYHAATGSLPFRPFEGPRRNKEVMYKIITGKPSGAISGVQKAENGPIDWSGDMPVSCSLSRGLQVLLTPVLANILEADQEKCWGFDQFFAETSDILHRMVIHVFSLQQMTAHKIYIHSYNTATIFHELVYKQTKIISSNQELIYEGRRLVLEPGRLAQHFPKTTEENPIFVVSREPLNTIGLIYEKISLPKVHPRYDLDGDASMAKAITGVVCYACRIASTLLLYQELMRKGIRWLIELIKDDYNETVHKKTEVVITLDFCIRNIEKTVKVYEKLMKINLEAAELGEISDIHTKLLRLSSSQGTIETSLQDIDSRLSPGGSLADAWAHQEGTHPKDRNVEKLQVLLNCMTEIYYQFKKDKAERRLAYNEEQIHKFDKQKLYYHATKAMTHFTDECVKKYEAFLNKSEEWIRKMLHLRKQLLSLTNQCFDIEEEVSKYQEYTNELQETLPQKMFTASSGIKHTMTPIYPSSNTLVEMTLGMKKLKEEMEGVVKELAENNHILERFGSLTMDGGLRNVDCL
Sequence of CHEK1 (human) (O14757 whole entry, looked up): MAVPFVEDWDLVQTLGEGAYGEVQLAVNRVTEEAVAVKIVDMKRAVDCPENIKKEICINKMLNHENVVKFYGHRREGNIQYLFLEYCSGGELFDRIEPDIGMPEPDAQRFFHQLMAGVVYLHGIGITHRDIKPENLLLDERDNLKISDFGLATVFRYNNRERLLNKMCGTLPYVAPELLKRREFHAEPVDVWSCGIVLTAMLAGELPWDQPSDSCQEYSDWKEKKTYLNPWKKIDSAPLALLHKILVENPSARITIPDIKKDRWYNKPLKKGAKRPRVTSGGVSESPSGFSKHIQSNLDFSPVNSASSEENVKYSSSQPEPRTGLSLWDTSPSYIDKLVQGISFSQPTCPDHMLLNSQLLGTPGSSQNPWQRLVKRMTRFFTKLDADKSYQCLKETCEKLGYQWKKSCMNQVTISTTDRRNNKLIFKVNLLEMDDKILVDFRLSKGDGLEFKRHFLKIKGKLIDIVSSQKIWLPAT

For `O=C1NC(=O)/C(=C/c2ccc3c(c2)OC(F)(F)O3)S1`, the residual activity [1] was 103%, the residual activity [2] was 102% and the residual activity [3] was 101%. It also gave a residual activity [4] of 102%, a residual activity [5] of 107% and a residual activity [6] of 96%. The residual activity [7] was 95.5%, the residual activity [8] was 91.5% and the residual activity [9] was 94.2%. The residual activity [10] was 92.6%, the residual activity [11] was 83.4% and the residual activity [12] was 95.7%. It also gave a residual activity [13] of 91.5%, a residual activity [14] of 99.6% and a residual activity [15] of 93.4%. The residual activity [16] was 93.4%, the residual activity [17] was 93.3% and the residual activity [18] was 98.4%. For the same compound, the residual activity [19] was 101%, the residual activity [20] was 107% and the residual activity [21] was 100%. The residual activity [22] was 93.3%, the residual activity [23] was 105% and the residual activity [24] was 102%. For the same compound, the residual activity [25] was 94.8%, the residual activity [26] was 99.5% and the residual activity [27] was 92.4%. The residual activity [28] was 71.1%, the residual activity [29] was 22.6% and the residual activity [30] was 88.1%. The residual activity [31] was 101%, the residual activity [32] was 85.7% and the residual activity [33] was 99.8%. The residual activity [34] was 89.7%, the residual activity [35] was 88.4% and the residual activity [36] was 92.9%. It also gave a residual activity [37] of 98.6%, a residual activity [38] of 98.7% and a residual activity [39] of 97.3%. The residual activity [40] was 88.8% and the residual activity [41] was 81.5%.
With `COc1ccc2c(c[n+](C)c3c4cc5c(cc4ccc23)OCO5)c1OC` the residual activity [1] was 101%, the residual activity [2] was 101% and the residual activity [3] was 97.3%. The residual activity [4] was 97%, the residual activity [5] was 71.6% and the residual activity [6] was 101%. The residual activity [7] was 96.7%, the residual activity [8] was 90.1% and the residual activity [9] was 83%. For the same compound, the residual activity [10] was 94.6%, the residual activity [11] was 105% and the residual activity [12] was 91.6%. For the same compound, the residual activity [13] was 101%, the residual activity [14] was 84.4% and the residual activity [15] was 68.8%. The residual activity [16] was 89.3%, the residual activity [17] was 96.2% and the residual activity [18] was 91.5%. It also gave a residual activity [19] of 94.4%, a residual activity [20] of 98% and a residual activity [21] of 91.7%. For the same compound, the residual activity [22] was 98.7%, the residual activity [23] was 110% and the residual activity [24] was 94.8%. For the same compound, the residual activity [25] was 100%, the residual activity [26] was 99.9% and the residual activity [27] was 100%. For the same compound, the residual activity [28] was 104%, the residual activity [29] was 83.3% and the residual activity [30] was 89.3%. For the same compound, the residual activity [31] was 100%, the residual activity [32] was 101% and the residual activity [33] was 98.9%. The residual activity [34] was 86.2%, the residual activity [35] was 103% and the residual activity [36] was 76.9%. For the same compound, the residual activity [37] was 92.7%, the residual activity [38] was 96.4% and the residual activity [39] was 86.1%. The residual activity [40] was 108% and the residual activity [41] was 88.8%.
`O=C1NC(=O)c2c1c1c3ccccc3n3c1c1c2c2ccccc2n1C1CCC3O1` showed a residual activity [1] of 32.8%, a residual activity [2] of 53.4% and a residual activity [3] of 114%. It also gave a residual activity [4] of 3.21%, a residual activity [5] of 70.3% and a residual activity [6] of 59.9%. For the same compound, the residual activity [7] was 121%, the residual activity [8] was 2.02% and the residual activity [9] was 93.1%. It also gave a residual activity [10] of 19.9%, a residual activity [11] of 36.9% and a residual activity [12] of 108%. The residual activity [13] was 86%, the residual activity [14] was 29.9% and the residual activity [15] was 60.8%. It also gave a residual activity [16] of 102%, a residual activity [17] of 7.4% and a residual activity [18] of 69.5%. For the same compound, the residual activity [19] was 3.63%, the residual activity [20] was 38.1% and the residual activity [21] was 75.4%. The residual activity [22] was 23.6%, the residual activity [23] was 88.7% and the residual activity [24] was 77%. It also gave a residual activity [25] of 1.89%, a residual activity [26] of 72.5% and a residual activity [27] of 52.5%. For the same compound, the residual activity [28] was 1.58%, the residual activity [29] was 16.7% and the residual activity [30] was 2.69%. For the same compound, the residual activity [31] was 44.7%, the residual activity [32] was 88.7% and the residual activity [33] was 9.85%. It also gave a residual activity [34] of 28%, a residual activity [35] of 104% and a residual activity [36] of 0.194%. It also gave a residual activity [37] of 9.25%, a residual activity [38] of 8.52% and a residual activity [39] of 1.33%. It also gave a residual activity [40] of 16.9% and a residual activity [41] of 13.3%.
For `CCOC(=O)c1c(C)[nH]c(/C=C2\C(=O)Nc3ccccc32)c1C`, the residual activity [1] was 82.8%, the residual activity [2] was 86.3% and the residual activity [3] was 98.3%. For the same compound, the residual activity [4] was 40.8%, the residual activity [5] was 101% and the residual activity [6] was 97.3%. It also gave a residual activity [7] of 89.6%, a residual activity [8] of 97.1% and a residual activity [9] of 91.7%. For the same compound, the residual activity [10] was 84.7%, the residual activity [11] was 79.2% and the residual activity [12] was 97.5%. For the same compound, the residual activity [13] was 104%, the residual activity [14] was 100% and the residual activity [15] was 46.3%. It also gave a residual activity [16] of 95.3%, a residual activity [17] of 70.5% and a residual activity [18] of 93.8%. The residual activity [19] was 89.4%, the residual activity [20] was 88.9% and the residual activity [21] was 89.5%. The residual activity [22] was 99.9%, the residual activity [23] was 102% and the residual activity [24] was 82.9%. For the same compound, the residual activity [25] was 91.3%, the residual activity [26] was 71.2% and the residual activity [27] was 97.5%. It also gave a residual activity [28] of 77.6%, a residual activity [29] of 114% and a residual activity [30] of 84.3%. The residual activity [31] was 97.3%, the residual activity [32] was 96.4% and the residual activity [33] was 96%. For the same compound, the residual activity [34] was 92.7%, the residual activity [35] was 98.6% and the residual activity [36] was 13.3%. It also gave a residual activity [37] of 82.2%, a residual activity [38] of 94.7% and a residual activity [39] of 71.4%. For the same compound, the residual activity [40] was 91.2% and the residual activity [41] was 79%.
